Test results reported in patent US10729130B2, “Nematicidal compositions and methods of using them” (Eden Research plc, priority 2004, dated 2020).
Values joined by “and” are separate entries in the source; they are usually repeats but may differ in a detail not shown here. Identical values can stand only once. Each block holds one compound with its values, some of them ahead of it.

What was measured:
root-knot juveniles = assay: Effect of citral alone and citral and thymol on root-knot nematode juveniles; type: in vivo; conditions: average of 2 replicates
Method: This was labelled 2500 ppm and was diluted to provide test solutions at 500, 250, 125 and 62.5 ppm.
This was marked 2500 ppm and diluted to provide test solutions at 500, 250, 125 and 62.5 ppm.
Control—Water was used as the control.
Nematode juveniles were collected in water and 0.1 to 0.15 ml added to each well of a plastic assay plate. 1.0 ml of the test solutions was added to each well. Observations were made microscopically after 24 and 48 hours as described in Example 4. […] Living nematodes move in an undulating, wave-like motion.
The results of two experiments are provided below in Tables 7 and 8.

root-knot nematodes [1] = assay: Effect of pH on the nematicidal activity of citral (fresh and one-day old solutions); type: in vivo, root-knot nematode
Method: Test solutions of these three concentrations were prepared at different pHs by adjusting the pH with HCl or NaOH to pH 4, 7 and 10.
One batch of test solutions was used immediately and another was left for 24 hours before use. The method of administration to the nematodes and counting the kill rate is the same as for previous protocols.
The results are shown below in Tables 11 and 12.

root-knot nematodes [2] = assay: Nematicidal activity of citral on root-knot nematodes (selectivity experiment); conditions: 250 ppm
[3] = Loading of terpenes (L-carvone) into SAF Mannan in minimal water (free terpene, flow); type: physicochemical; design: key to Free Terpene: +: “free terpene” refers to the visible presence of terpene in the centrifuged reaction mixture; −: The absence of free terpene indicates complete absorption of the terpene by the particles; key to Flow: Sl = slight; conditions: emulsion 4.64 g; for Flow: flow in inverted tubes over 15 minutes
Method: The following protocol was carried out to evaluate the possibility that terpene loading and encapsulation into YP could be carried out at a very high Yeast Particles (YP) solids level to allow for direct extrusion of the loaded formulation into a fluidised bed drier. The minimal amount of water to completely hydrate the SAF Mannan™ particles was determined to be 3.53 g water per g solids. This defines the hydrodynamic volume (HV) or water absorptive capacity of the particles. At this level of water the hydrated particles have a consistency of a stiff dough which is thixotropic, i.e. shear thinning like mayonnaise. Addition of water up to 40% above the HV results in a thick flowable paste. The standard reaction that has been used in the above examples was carried out at 3×HV water.
. Controls were the standard loading system which uses 3×HV water, particles only and terpene only reactions. Following overnight incubation samples of the mixtures were evaluated microscopically for free terpene and evidence of terpene uptake into the particles and for material flow characteristics by assessing flow in inverted tubes over 15 minutes. In addition, the presence of free oil was assessed by hydrating the reaction mixture with 5×HV, vortexing to obtain a complete dispersion of particles and centrifugation to sediment the particle encapsulated terpene. FIGS. 7 to 12 show the loading results of the following tubes: • FIG. 7—Tube 3 • FIG. 8—Tube 5 • FIG. 9—Tube 6 • FIG. 10—Tube 8 • FIG. 11—Tube 10 • FIG. 12—Tube 11

[4] = Xanthan gum as interstitial hydrocolloid: dispersion of dried encapsulated L-carvone particles when re-hydrated; type: physicochemical; conditions: dispersion on re-hydration, SAF 1 g, L-carvone emulsion 1.1 g
Method: The following protocol was adopted to evaluate the effect of an interstitial hydrocolloid to increase dried hollow glucan particle encapsulated terpene formulations to disperse when hydrated. • SAF Mannan™ particles • 0.1% Tween 80 • L-carvone • Xanthan Gum—1% w/v in 0.1% Tween 80
The effect of increasing xanthan gum levels on dry hollow glucan particle encapsulated L-carvone dispersion in water was assessed by loading L-carvone into SAF Mannan by incubating 1.1 g of an L-carvone emulsion (L-carvone:water:surfactant ratio of 0.75:0.3:0.05) with 1 g SAF Mannan and 4.4 g 0.1% Tween 80 containing 0-1% xanthan gum as shown in Table 32.

Compound: CC(C)=CCCC(C)=CC=O [Citral, citral]
- percentage of nematodes dead (root-knot juveniles; Table 7 experiment, 125 ppm, 24 h): 100%
- percentage of nematodes dead (root-knot juveniles; Table 7 experiment, 125 ppm, 48 h): 24%
- percentage of nematodes dead (root-knot juveniles; Table 7 experiment, 250 ppm, 24 h): 100%
- percentage of nematodes dead (root-knot juveniles; Table 7 experiment, 250 ppm, 48 h): 91%
- percentage of nematodes dead (root-knot juveniles; Table 7 experiment, 500 ppm, 24 h): 98%
- percentage of nematodes dead (root-knot juveniles; Table 7 experiment, 500 ppm, 48 h): 97%
- percentage of nematodes dead (root-knot juveniles; Table 8 experiment, 62.5 ppm, 24 h): 98%
- percentage of nematodes dead (root-knot juveniles; Table 8 experiment, 125 ppm, 24 h): 94%
- percentage of nematodes dead (root-knot juveniles; Table 8 experiment, 250 ppm, 24 h): 94%
- % nematodes dead (root-knot nematodes [1]; fresh citral, 62.5 ppm, pH 4, 24 h): 48%
- % nematodes dead (root-knot nematodes [1]; fresh citral, 62.5 ppm, pH 4, 48 h): 50%
- % nematodes dead (root-knot nematodes [1]; fresh citral, 62.5 ppm, pH 7, 24 h): 39%
- % nematodes dead (root-knot nematodes [1]; fresh citral, 62.5 ppm, pH 7, 48 h): 44%
- % nematodes dead (root-knot nematodes [1]; fresh citral, 62.5 ppm, pH 10, 24 h): 32%
- % nematodes dead (root-knot nematodes [1]; fresh citral, 62.5 ppm, pH 10, 48 h): 45%
- % nematodes dead (root-knot nematodes [1]; fresh citral, 125 ppm, pH 4, 24 h): 31%
- % nematodes dead (root-knot nematodes [1]; fresh citral, 125 ppm, pH 4, 48 h): 50%
- % nematodes dead (root-knot nematodes [1]; fresh citral, 125 ppm, pH 7, 24 h): 44%
- % nematodes dead (root-knot nematodes [1]; fresh citral, 125 ppm, pH 7, 48 h): 47%
- % nematodes dead (root-knot nematodes [1]; fresh citral, 125 ppm, pH 10, 24 h): 39%
- % nematodes dead (root-knot nematodes [1]; fresh citral, 125 ppm, pH 10, 48 h): 39%
- % nematodes dead (root-knot nematodes [1]; fresh citral, 250 ppm, pH 4, 24 h): 75%
- % nematodes dead (root-knot nematodes [1]; fresh citral, 250 ppm, pH 4, 48 h): 73%
- % nematodes dead (root-knot nematodes [1]; fresh citral, 250 ppm, pH 7, 24 h): 73%
- % nematodes dead (root-knot nematodes [1]; fresh citral, 250 ppm, pH 7, 48 h): 72%
- % nematodes dead (root-knot nematodes [1]; fresh citral, 250 ppm, pH 10, 24 h): 83%
- % nematodes dead (root-knot nematodes [1]; fresh citral, 250 ppm, pH 10, 48 h): 87%
- % nematodes dead (root-knot nematodes [1]; one-day old citral, 62.5 ppm, pH 4, 24 h): 40%
- % nematodes dead (root-knot nematodes [1]; one-day old citral, 62.5 ppm, pH 4, 48 h): 27%
- % nematodes dead (root-knot nematodes [1]; one-day old citral, 62.5 ppm, pH 7, 24 h): 30%
- % nematodes dead (root-knot nematodes [1]; one-day old citral, 62.5 ppm, pH 7, 48 h): 27%
- % nematodes dead (root-knot nematodes [1]; one-day old citral, 62.5 ppm, pH 10, 24 h): 16%
- % nematodes dead (root-knot nematodes [1]; one-day old citral, 62.5 ppm, pH 10, 48 h): 21%
- % nematodes dead (root-knot nematodes [1]; one-day old citral, 125 ppm, pH 4, 24 h): 27%
- % nematodes dead (root-knot nematodes [1]; one-day old citral, 125 ppm, pH 4, 48 h): 31%
- % nematodes dead (root-knot nematodes [1]; one-day old citral, 125 ppm, pH 7, 24 h): 25%
- % nematodes dead (root-knot nematodes [1]; one-day old citral, 125 ppm, pH 7, 48 h): 33%
- % nematodes dead (root-knot nematodes [1]; one-day old citral, 125 ppm, pH 10, 24 h): 25%
- % nematodes dead (root-knot nematodes [1]; one-day old citral, 125 ppm, pH 10, 48 h): 32%
- % nematodes dead (root-knot nematodes [1]; one-day old citral, 250 ppm, pH 4, 24 h): 90%
- % nematodes dead (root-knot nematodes [1]; one-day old citral, 250 ppm, pH 4, 48 h): 90%
- % nematodes dead (root-knot nematodes [1]; one-day old citral, 250 ppm, pH 7, 24 h): 40%
- % nematodes dead (root-knot nematodes [1]; one-day old citral, 250 ppm, pH 7, 48 h): 33%
- % nematodes dead (root-knot nematodes [1]; one-day old citral, 250 ppm, pH 10, 24 h): 47%
- % nematodes dead (root-knot nematodes [1]; one-day old citral, 250 ppm, pH 10, 48 h): 52%
- % dead (root-knot nematodes [2]; 24 h): 87% and 88%
- % dead (root-knot nematodes [2]; 48 h): 100%

- Free Terpene ([3]; Tube 1: terpene only control, no SAF, water 4.5 g): +
- Free Terpene ([3]; Tube 3: SAF 1 g, water 4.5 g (standard loading, 3×HV)): −
- Free Terpene ([3]; Tube 4: SAF 1 g, water —): −
- Free Terpene ([3]; Tube 5: SAF 1 g, water 0.17 g): −
- Free Terpene ([3]; Tube 6: SAF 1 g, water 0.35 g): −
- Free Terpene ([3]; Tube 7: SAF 1 g, water 0.52 g): −
- Free Terpene ([3]; Tube 8: SAF 1 g, water 0.7 g): −
- Free Terpene ([3]; Tube 9: SAF 1 g, water 0.87 g): −
- Free Terpene ([3]; Tube 10: SAF 1 g, water 1.05 g): −
- Free Terpene ([3]; Tube 11: SAF 1 g, water 1.39 g): −
- Flow ([3]; Tube 7: SAF 1 g, water 0.52 g): Sl
- Flow ([3]; Tube 8: SAF 1 g, water 0.7 g): Mod
- Flow ([3]; Tube 9: SAF 1 g, water 0.87 g): High
- Flow ([3]; Tube 10: SAF 1 g, water 1.05 g): High
- Flow ([3]; Tube 11: SAF 1 g, water 1.39 g): High
- Visual Observations ([4]; 0.1% Tween-80 0 g, 1% xanthan 4.4 g): Finer Uniform
- Visual Observations ([4]; 0.1% Tween-80 2.2 g, 1% xanthan 2.2 g): Finer Uniform
- Visual Observations ([4]; 0.1% Tween-80 3.3 g, 1% xanthan 1.1 g): Finer Uniform
- Visual Observations ([4]; 0.1% Tween-80 3.85 g, 1% xanthan 0.55 g): Uniform
- Visual Observations ([4]; 0.1% Tween-80 4.12 g, 1% xanthan 0.28 g): Uniform
- Visual Observations ([4]; 0.1% Tween-80 4.26 g, 1% xanthan 0.14 g): Uniform
- Visual Observations ([4]; 0.1% Tween-80 4.33 g, 1% xanthan 0.07 g): Uniform
- Visual Observations ([4]; 0.1% Tween-80 4.4 g, 1% xanthan 0 g): Large non-
Compound: L-carvone
